Experimental data from patent US20090197933A1, “IMIDAZOLINYLMETHYL ARYL SULFONAMIDE” (priority 2008, published 2009).

Tests used:
[1] = molecular target: T1, alpha-1A adrenoceptors (Homo sapiens, UniProt P35348); experiment: alpha-1A adrenoceptor partial agonist activity (intrinsic activity and pEC50); format: cell-based
T1 sequence (P35348 1-466): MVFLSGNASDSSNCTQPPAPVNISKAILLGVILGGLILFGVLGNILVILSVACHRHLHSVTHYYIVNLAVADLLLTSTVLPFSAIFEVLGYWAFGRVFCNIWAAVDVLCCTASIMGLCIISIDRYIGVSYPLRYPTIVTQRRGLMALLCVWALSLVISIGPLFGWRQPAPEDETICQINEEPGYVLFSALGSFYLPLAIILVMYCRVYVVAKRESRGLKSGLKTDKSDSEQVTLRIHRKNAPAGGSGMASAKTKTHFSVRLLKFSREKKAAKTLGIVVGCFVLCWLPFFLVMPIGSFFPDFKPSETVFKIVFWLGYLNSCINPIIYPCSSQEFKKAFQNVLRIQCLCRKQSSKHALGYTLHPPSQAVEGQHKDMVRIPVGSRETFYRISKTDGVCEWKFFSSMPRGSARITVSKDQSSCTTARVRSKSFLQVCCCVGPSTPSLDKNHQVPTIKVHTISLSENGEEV

[2] = test system: Female, Dutch Belted rabbits; experiment: Anesthetized rabbit model: intraurethral pressure (IUP) and mean arterial blood pressure (MAP); format: in vivo; details: i.v.; for durability of IUP response over time: slope of IUP response 2-7 minutes post the first peak, top 3 doses
Experimental: In general, IUP is the intraurethral pressure and is measured as the 2 minute mean from the first peak of the urethral response (FIG. 1). MAP is the mean arterial blood pressure and is measured as the average blood pressure during the 2 minute section where IUP is measured. The durability is the slope of the IUP response in mmHg/min and is calculated immediately after the 2 minute IUP response for 5 minutes (2-7 minutes post the first peak) for the top 3 doses.
Surgery: Female, Dutch Belted rabbits (1.20-2.0 kg, Myrtle's Rabbitry, Tenn.) were anesthetized with isoflurane (3.0% at 2 to 4 L/min) and urethane (1.5 grams/kg, s.c.). In preparation for surgery, the rabbits were shaved, scrubbed (i.e., perineal area, ventral neck, and ventral, caudal surface of the abdomen) and were administered Ringers Lactate Solution (s.c.) to maintain fluids. The femoral vein and carotid artery were isolated and cannulated with PE-50 and PE-90 tubing (Becton-Dickinson), respectively, for the administration of drugs (vein) and the measurement of blood pressure (artery). An abdominal incision was made, exposing the ureters and the bladder. The ureters were isolated and cannulated proximal to the urinary bladder with PE-50 tubing, to drain urine from the kidneys. […]
Experiment: The arterial cannula was connected to a P23XL pressure transducer (Grass Technologies, West Warwick, R.I.) and the arterial pressure transducer and Unisensor urethral transducer catheter were connected to an Gould 13-6615-50 amplifier (Data Sciences International, St. Paul, Minn.) and Gould TA6000 recorder (Data Sciences International, St. Paul, Minn.) in parallel. All data was analyzed using Power Lab Chart version 5.0.2 (ADInstruments, Colorado Springs, Colo.) data acquisition system. […]
Measurements: The change in IUP and MAP from baseline were measured as well as the slope of the IUP response. MAP was first calculated according to the following formula, where Pd is diastolic pressure and Ps is systolic pressure: MAP=Pd+⅓ (Ps−Pd). Pre-dose baseline values for IUP and MAP were assessed during a 2 min period just prior to vehicle or test compound administration. Post-dose values for IUP or MAP were determined during a 2 min period at the first peak in the IUP tracing following vehicle or test compound administration. The change in IUP and MAP induced by vehicle or test compound were then calculated by subtracting the pre-dose value from the post-dose value. The rate of decline (mmHg/min) in the IUP response was determined by taking the average slope during the 5 min. period immediately following the 2 min. efficacy measurement for the top three doses. […]

- intrinsic activity, or efficacy, as a partial agonist ([1]; ideally between 0.35 to 0.60): 0.46
- EC50 ([1]; read-out: affinity, or pEC50 value (converted)): 631 nM
Structure (SMILES): Cc1c(CC2=NCCN2)ccc(NS(C)(=O)=O)c1F [Formula I, N-[4-(4,5-Dihydro-1H-imidazol-2-ylmethyl)-2-fluoro-3-methyl-phenyl]-methanesulfonamide]
- maximum increase in MAP (arterial blood pressure) [2]: 10.62 mmHg
- selectivity for enhancement of intraurethral pressure (IUP) over blood pressure (MAP) (Urethral Selectivity MAP/IUP = ED10 of MAP/ED10 of IUP) ([2]; at the 10 mmHg change in IUP level): 2.13 fold
- durability of IUP response over time [2]: improved durability of IUP response over time
- durability of IUP response over time ([2]; listed as formula I): increased durability of IUP response over time
